assay: gradient 5% acetonitrile 3 min, to 50% in 2 min, to 85% in 15 min, held 3 min, 100 µL/min; settings: column: Zorbax Extend-C18 2.1 x 50 mm; eluents: water / acetonitrile, 0.1% formic acid
In short: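 Using water and acetonitrile that each contained 0.1% formic acid, mixtures of ~100 pure standards were separated at 100 μL/min on a Zorbax Extend-C18 column (2.1 × 50 mm, 1.8 μm). The HPLC fed a quadrupole time-of-flight mass spectrometer working in positive and negative ionization mode, with dead and dwell volumes of 40 μL and 900 μL. Data were acquired over 3 months. Retention time was read from computationally picked adduct peaks after manual inspection of each.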

Going from Cn1nc2n(c1=O)CCN(Cc1cn[nH]c1-c1ccc(F)cc1)C2 to Cc1cc(C)c2[nH]c3c(c(=O)c2c1)CN(CC(=O)NCc1ccc(F)cc1)CC3, the RP-LC retention time rises from 600 s to 620 s.

Compared with Cc1ccc(Cc2nc(-c3ccnc(N4CCOCC4)c3)no2)cc1, Cc1ccc(-c2noc(CSc3nccn3-c3ccccc3)n2)cc1 is higher in RP-LC retention time: 908 s for the first, 938 s for the second.

Going from COCCN1C(=O)c2ccccc2C(C(=O)NCCC(C)C)C1c1cccs1 (configuration not stated) to COCCNC(=O)NCCn1c(-c2ccc(C)cc2)nc2ccccc21, the RP-LC retention time falls from 874 s to 588 s.

Compared with CCOC(=O)COc1cc(-c2ccc(C)cc2)nc2ccc(NC(=O)C3CCC3)cc12, CCN1CCN(c2cc(C(=O)O)c3cc(NS(=O)(=O)c4ccc(C)cc4C)ccc3n2)CC1 is lower in RP-LC retention time: 1060 s for the first, 638 s for the second.

First: Cc1cc2c(F)c(Oc3ncnn4cc(OC[C@@H](C)OC(=O)[C@H](C)N)c(C)c34)ccc2[nH]1
Second: CCC(C)OC(=O)c1[nH]c2c(c1C)C(=O)CC(c1ccc(N(C)C)cc1)C2 (configuration not stated)
The RP-LC retention time of the first is lower: 746 s for the first, 764 s for the second.

Compared with Cc1cc2nc(N3CCOCC3)n(CC(=O)Nc3ccc(N(C)C)cc3)c(=O)c2n1C, CCOC(=O)c1ccc(NC(=O)Cn2cnc3nc(N4CCCC(C(=O)NC)C4)sc3c2=O)cc1 (configuration not stated) is higher in RP-LC retention time: 623 s for the first, 658 s for the second.

Compared with Cc1cc(C(=O)NCc2ccc(Cl)cc2)n(-c2ccccc2)n1, O=C(c1ccccc1Cl)N1CCN(c2cc(-c3ccc(Cl)cc3)[nH]n2)CC1 is lower in RP-LC retention time: 878 s for the first, 854 s for the second.

Compared with CCOC(=O)[C@@H](N)Cc1ccc(O)c(O)c1, CCc1ccc(NC(=O)NCCc2cn(CC(C)C)c3ncccc23)cc1 is higher in RP-LC retention time: 579 s for the first, 919 s for the second.

Compared with O=C(Nc1ccc2ncnc(N3CCCCC3)c2c1)c1cncc(Br)c1, CC(NC(=O)c1ccc2ncnc(N3CCCCC3)c2c1)c1cccnc1 (configuration not stated) is lower in RP-LC retention time: 665 s for the first, 545 s for the second.

First: CC1(C)CC(=O)c2cn(-c3ccccc3)c(=O)c(C(=O)N3CCN(C4CCCCC4)CC3)c2C1
Second: COc1cc(NC(=O)C2=C(C)OCCS2)c(Cl)cc1C(=O)N1CCN(C2CCCCC2)CC1
The RP-LC retention time of the first is lower: 586 s for the first, 684 s for the second.

Compared with CO[C@@H](C(=O)N1Cc2[nH]nc(NC(=O)c3ccc(N4CCN(C)CC4)cc3)c2C1)c1ccccc1, CC1CN(C(=O)CCC(=O)N2CCN(c3ccccn3)CC2)c2ccccc2O1 (configuration not stated) is higher in RP-LC retention time: 614 s for the first, 623 s for the second.

First: COc1ccc(N2CC(c3noc(-c4ccccc4Cl)n3)CC2=O)cc1OC (configuration not stated)
Second: COc1ccc(C2CC(=O)N(c3ccc(F)c(Cl)c3)C(=O)C2)cc1
The RP-LC retention time of the first is lower: 880 s for the first, 980 s for the second.

First: COC(=O)C1=C(CN2CCCC2)NC(=O)NC1c1ccccc1C (configuration not stated)
Second: CCC1CN(C(=O)N2CCC(C(=O)NCCN3CCCCCC3)CC2)c2ccccc2O1 (configuration not stated)
The RP-LC retention time of the first is lower: 588 s for the first, 660 s for the second.

First: CC(C)CCN1CC(=O)N2Cc3[nH]c4ccccc4c3C[C@H]2C1=O
Second: CCN1C(=O)C2(CCN(S(=O)(=O)c3ccc(C)c(F)c3)CC2)c2ccccc21
The RP-LC retention time of the first is lower: 825 s for the first, 1120 s for the second.

First: CN(C)c1cc2c(cc1NC(=O)C1CC1)n(C)c(=O)c(=O)n2C
Second: CCOC(=O)c1c(S(=O)(=O)N2CCC(C(=O)Nc3ccc(C)c(C)c3)CC2)c(C)n(CC)c1C
The RP-LC retention time of the first is lower: 608 s for the first, 975 s for the second.

First: COC(=O)c1ccc(CSc2nccc3c(OC)cccc23)o1
Second: COc1ccc(CNC(=O)N2CC=C(c3cn(C)c4ncccc34)CC2)cc1
The RP-LC retention time of the first is higher: 1100 s for the first, 752 s for the second.

First: O=C1NCCc2ccc(NC(=O)C3CC(=O)N(c4ccc(Cl)cc4)C3)cc21 (configuration not stated)
Second: O=C(CN1C(=O)NC(c2ccccc2Cl)C2=C1COC2=O)Nc1ccc(F)c(Cl)c1 (configuration not stated)
The RP-LC retention time of the first is lower: 661 s for the first, 837 s for the second.

Going from CN(C)c1cc(-n2cnc(C(=O)NCc3ccccc3Cl)c2)ncn1 to CCn1cc(CCNS(=O)(=O)Cc2ccccc2Cl)c2cccnc21, the RP-LC retention time falls from 813 s to 804 s.

First: Cc1cccc(-c2nc(-c3cn(-c4ccccc4)nn3)no2)c1
Second: Cc1nc(-c2noc(-c3cccnc3)n2)cn1CC(=O)NCc1cccs1
The RP-LC retention time of the first is higher: 1060 s for the first, 662 s for the second.

Going from O=C(NC(Cc1ccccc1)c1nnc(N2CCCC2)o1)c1ccco1 (configuration not stated) to O=C(Nc1cccc(Br)c1)C1CCN(c2cc(N3CCCC3)ncn2)CC1, the RP-LC retention time rises from 713 s to 722 s.

Compared with COc1ccc(-c2cn3c(CC(=O)N(Cc4cccs4)C4CCCC4)csc3n2)cc1OC, CCCn1cc(-c2ccncc2)cc1C(=O)Nc1ccc(OC)c(OC)c1 is lower in RP-LC retention time: 875 s for the first, 654 s for the second.

Going from O=C(NCc1cscn1)C1CCN(S(=O)(=O)c2cccs2)CC1 to CN(C)C(=O)c1csc(S(=O)(=O)N2CCC(C(=O)NCc3ccc(F)cc3)CC2)c1, the RP-LC retention time rises from 652 s to 725 s.

First: Cc1ccc(S(=O)(=O)N2CCOCC2)cc1-c1nnc(-c2ccccc2Cl)o1
Second: CC1CCN(CCCNC(=O)c2nnc(-c3ccc(S(=O)(=O)N4CCOCC4)cc3)o2)CC1
The RP-LC retention time of the first is higher: 951 s for the first, 608 s for the second.

First: O=C(c1ccc(N2C[C@H]3C[C@H](C2)[C@H]2CCCC(=O)N2C3)nc1)N1CCC2(CC1)OCCO2
Second: O=C(NC1CCCC1)C1CCCN(c2ccc(=O)n(-c3cccc(Cl)c3)n2)C1 (configuration not stated)
The RP-LC retention time of the first is lower: 584 s for the first, 845 s for the second.

Compared with C[C@@H](NC(=O)c1ccc(Cl)cc1)C(=O)NCc1cscn1, CC(C)N1CCN(Cc2ccc(C(=O)NCc3ccc(C(F)(F)F)cc3)cc2)C(=O)C1=O is higher in RP-LC retention time: 673 s for the first, 741 s for the second.

Compared with Cc1nc(N2CCCC2)c2c(C(=O)Nc3cccc(C)c3C)c(C)oc2n1, O=C(Nc1cc(F)ccc1F)C1CCCN(c2ncnc3c2nc2n3CCCCC2)C1 (configuration not stated) is higher in RP-LC retention time: 756 s for the first, 774 s for the second.

First: Cc1nnc2ccc(-c3cccc(NC(=O)C4CCN(S(C)(=O)=O)CC4)c3)nn12
Second: CCOC(=O)c1c(C)[nH]c(C)c1S(=O)(=O)N1CCC(C(=O)Nc2ccc(NC(C)=O)cc2)CC1
The RP-LC retention time of the first is lower: 605 s for the first, 666 s for the second.

Going from CCn1c(=O)c(C(=O)N2CCN(c3ccccn3)CC2)nc2cc(C)c(C)cc21 to Fc1cc(F)cc(-c2noc3ncnc(N4CCN(c5ccccn5)CC4)c23)c1, the RP-LC retention time rises from 625 s to 678 s.

Compared with COc1ccc(NC(=O)N2CCC(c3nc(C(=O)N4CCOCC4)c(C)o3)CC2)c(C)c1, CCOc1ccc(-c2nc(CN3CCN(C(=O)NC4CCCC4)CC3)c(C)o2)cc1 is higher in RP-LC retention time: 663 s for the first, 703 s for the second.

Going from CNC(=O)N1CCCC(c2cccc(C(=O)NCc3ccc(Br)cc3)c2)C1 (configuration not stated) to O=C(NCc1ccc2c(c1)OCO2)c1ccc2c(c1)NC(=O)C1CCCCN21 (configuration not stated), the RP-LC retention time falls from 830 s to 765 s.

First: Cn1cc(NC(=O)Nc2ccc(F)c(F)c2)c2ccccc21
Second: Cc1ccc(Nc2c(-c3ccccc3Cl)nc3ccc(Br)cn23)cc1
The RP-LC retention time of the first is lower: 848 s for the first, 1110 s for the second.

Going from CCOCCCNC(=O)C1CCCN(c2nccnc2Oc2ccc(C)cc2)C1 (configuration not stated) to CCCC(=O)N1CCCC1COc1ccc(C(=O)NC2CC2)cc1 (configuration not stated), the RP-LC retention time falls from 926 s to 717 s.

Going from Cc1cc(OC(C)C(=O)N(Cc2ccco2)C2CCS(=O)(=O)C2)cc(C)c1Cl (configuration not stated) to COc1cccc(CNC(=O)C2CCCN2S(=O)(=O)c2cc3c(cc2C)NC(=O)C(C)O3)c1 (configuration not stated), the RP-LC retention time falls from 1010 s to 788 s.

First: COc1cc(NC(=O)N2CC(C)Sc3ccccc32)cc(OC)c1OC (configuration not stated)
Second: COc1ccc(-c2c(C)noc2NC(C)=O)cc1S(=O)(=O)N1CCC(C)CC1
The RP-LC retention time of the first is higher: 961 s for the first, 801 s for the second.

First: Cc1cc(=O)n(CC(=O)Nc2cc(F)ccc2C)c(N)n1
Second: Cc1cc(C)n(-c2ccc(=O)n(CCNC(=O)c3cncc(Br)c3)n2)n1
The RP-LC retention time of the first is lower: 608 s for the first, 636 s for the second.

Going from O=c1c2nc(-c3ccc(F)cc3F)cn2ccn1-c1ccc2c(c1)CCC2 to O=C(NC1CCN(c2cc(-c3ccc(F)cc3)[nH]n2)C1)c1ccc2[nH]ccc2c1 (configuration not stated), the RP-LC retention time falls from 1030 s to 689 s.

First: CNC(=O)C1CCN(c2nc3ncn(CC(=O)NC(C)C)c(=O)c3s2)CC1
Second: CN(C)CCCNC(=O)C1CCN(c2nc3ccc(-c4ccsc4)nc3s2)CC1
The RP-LC retention time of the first is lower: 570 s for the first, 644 s for the second.

First: CCCS(=O)(=O)N1CCCC(Cc2noc(-c3cnccn3)n2)C1 (configuration not stated)
Second: CCCc1noc(-c2ccc3nnc(CC(=O)NC4CCCC4)n3c2)n1
The RP-LC retention time of the first is lower: 764 s for the first, 922 s for the second.

Compared with COc1ccc(CN2CC3(CCN(S(=O)(=O)c4c(C)nn(C)c4C)CC3)C2=O)cc1, COc1cccc(C2CC(c3ccc4c(c3)OCO4)=NC3(CCN(C(C)C)CC3)N2)c1O (configuration not stated) is lower in RP-LC retention time: 761 s for the first, 599 s for the second.

Compared with CCc1ccc(-c2noc(CSc3nc4cc5c(cc4c(=O)n3Cc3ccncc3)OCO5)n2)cc1, O=C(NC1(c2nc(-c3cnccn3)no2)CCCCC1)c1cc2cc(Cl)ccc2[nH]1 is higher in RP-LC retention time: 909 s for the first, 916 s for the second.

Compared with CCN(CC)CCNCc1ccc(-c2ccc(Cl)cc2)o1, Cc1ccc(NC(=O)c2nnc(CCCC(=O)NCCc3c[nH]c4ccc(C)cc34)s2)cc1 is higher in RP-LC retention time: 591 s for the first, 946 s for the second.

Going from O=C(COc1cc(O)c2c(=O)cc(-c3ccccc3)oc2c1)OCc1ccccc1 to Nc1ccc(CCN2CCN(c3cccc(C(F)(F)F)c3)CC2)cc1, the RP-LC retention time falls from 1200 s to 633 s.

Going from CNc1ccc2oc(C[C@H]3O[C@@]4(CC[C@H]3C)O[C@H]([C@H](C)C(=O)c3ccc[nH]3)[C@H](C)C[C@H]4C)nc2c1C(=O)O to O=C(NCc1ccco1)C(=O)NCC1OCCN1C(=O)c1ccc2c(c1)OCO2 (configuration not stated), the RP-LC retention time falls from 1030 s to 653 s.

In the case of CCC(C)NC(=O)C1CCN(S(=O)(=O)c2ccc3c(c2)CCCC(=O)N3)CC1 (configuration not stated), the RP-LC retention time is reported as 682 s.
